assay: Mouse Acetylcholine Bromide-Induced Abdominal Constriction Assay; assay type: in vivo; details: 30 mg/kg po, 30 min before 5.5 mg/kg i.p. acetylcholine bromide, % analgesia

Row | Structure (SMILES) | % Inhibition at 30 mg/kg (route)
1 | CN1C[C@H]2CCCC[C@@H](c3ccc(F)cc3)[C@H]2C1 (relative stereo) [Cp-7] | 100%
2 | CN1C[C@H]2CCCC[C@H](c3ccccc3)[C@H]2C1 (relative stereo) [Cp-4] | 80%
3 | CN1C[C@H]2CCCC[C@](O)(c3ccccc3)[C@H]2C1 (relative stereo) [Cp-1] | 93%
4 | CN1C[C@H]2CCCC[C@@H](c3ccccc3)[C@H]2C1 (relative stereo) [Cp-5] | 100%
5 | COc1cccc([C@@]2(O)CCCC[C@@H]3CN(C)C[C@@H]32)c1 (relative stereo) [Cp-2] | 80%
6 | CN1C[C@H]2CCCC[C@H](c3ccc(F)cc3)[C@H]2C1 (relative stereo) [Cp-6] | 93%
7 | CN1C[C@H]2CCCC[C@](O)(c3ccc(F)cc3)[C@H]2C1 (relative stereo) [Cp-3] | 100%

same assay, conditions: 30 mg/kg sc, 5.5 mg/kg i.p. acetylcholine bromide, % analgesia

Row | Structure (SMILES) | % Inhibition at 30 mg/kg (route)
8 | COc1cccc([C@@H]2CCCC[C@@H]3CN(C)C[C@@H]32)c1 (relative stereo) [Cp-9] | 90%
9 | COc1cccc([C@H]2CCCC[C@@H]3CN(C)C[C@@H]32)c1 (relative stereo) [Cp-8] | 100%
